The values that follow are results of earlier work, collected in US20050182028A1, “Pharmaceutical formulation for oral delivery of bisphosphates” (priority 2004, published 2005).

For the series the following is noted: background statement.

Consider `O=P(O)(O)C(O)(Cc1cccnc1)P(=O)(O)O` [risedronate, Risedronate], for which the oral bioavailability is on record as 0.63%.
